Organism: Rattus norvegicus
Assay: DrugMatrix - Regimen: Daily Repeat
Assay type: toxicity, organism-based, Sprague-Dawley
Design: regimen Daily Repeat, gender Male, age 6-8 weeks
Conditions: in vivo, po, route oral GAVAGE, vehicle .5 % CMC; for ABSOLUTE BASOPHIL / ABSOLUTE EOSINOPHIL / ABSOLUTE LYMPHOCYTE / ABSOLUTE MONOCYTE / ABSOLUTE SEGMENTED NEUTROPHIL / BASOPHIL / EOSINOPHIL / ERYTHROCYTE COUNT / HEMATOCRIT / HEMOGLOBIN / LEUKOCYTE COUNT / LYMPHOCYTE / MEAN CORPUSCULAR HEMOGLOBIN / MEAN CORPUSCULAR HEMOGLOBIN CONCENTRATION / MEAN CORPUSCULAR VOLUME / MONOCYTE / NEUTROPHIL / NUCLEATED RED BLOOD CELLS / PLATELET COUNT: tissue Blood; for ALANINE AMINOTRANSFERASE / ALBUMIN / ALKALINE PHOSPHATASE / ASPARTATE AMINOTRANSFERASE / BLOOD UREA NITROGEN / CARBON DIOXIDE / CHLORIDE / CHOLESTEROL / CREATINE PHOSPHOKINASE / CREATININE / GLUCOSE / LACTATE DEHYDROGENASE / LIPASE / PHOSPHORUS / POTASSIUM / SODIUM / TOTAL BILIRUBIN / TOTAL PROTEIN / URIC ACID: tissue Plasma
[1] = 100 mg/kg, 72 h, dose level Low, time 3 day
[2] = 100 mg/kg, 120 h, dose level Low, time 5 day
[3] = 2000 mg/kg, 72 h, dose level High, time 3 day
[4] = 2000 mg/kg, 120 h, dose level High, time 5 day

C#C[C@]1(O)CC[C@H]2[C@@H]3CCC4=Cc5oncc5C[C@]4(C)[C@H]3CC[C@@]21C [DANAZOL]
ABSOLUTE BASOPHIL [1]: 0 CELLS/uL
ABSOLUTE EOSINOPHIL [1]: 39 CELLS/uL
ABSOLUTE LYMPHOCYTE [1]: 10714 CELLS/uL
ABSOLUTE MONOCYTE [1]: 124 CELLS/uL
ABSOLUTE SEGMENTED NEUTROPHIL [1]: 1823 CELLS/uL
BASOPHIL [1]: 0%
EOSINOPHIL [1]: 0.33%
ERYTHROCYTE COUNT [1]: 5.54 x10E6/uL
HEMATOCRIT [1]: 34.17%
HEMOGLOBIN [1]: 13.43 G/DL
LEUKOCYTE COUNT [1]: 12.7 x10E3/uL
LYMPHOCYTE [1]: 84.33%
MEAN CORPUSCULAR HEMOGLOBIN [1]: 24.3 pg
MEAN CORPUSCULAR HEMOGLOBIN CONCENTRATION [1]: 39.3 G/DL
MEAN CORPUSCULAR VOLUME [1]: 61.77 fL
MONOCYTE [1]: 1%
NEUTROPHIL [1]: 14.33%
NUCLEATED RED BLOOD CELLS [1]: 0 /100WBC
PLATELET COUNT [1]: 1192.67 x10E3/uL
ALANINE AMINOTRANSFERASE [1]: 44.33 u/L
ALBUMIN [1]: 4.17 G/DL
ALKALINE PHOSPHATASE [1]: 377 u/L
ASPARTATE AMINOTRANSFERASE [1]: 76.33 u/L
BLOOD UREA NITROGEN [1]: 14.67 mg/dL
CARBON DIOXIDE [1]: 25.33 mmol/L
CHLORIDE [1]: 102 MEQ/L
CHOLESTEROL [1]: 55 mg/dL
CREATINE PHOSPHOKINASE [1]: 401.33 u/L
CREATININE [1]: 0.17 mg/dL
GLUCOSE [1]: 163.33 mg/dL
LACTATE DEHYDROGENASE [1]: 137 u/L
LIPASE [1]: 10 u/L
PHOSPHORUS [1]: 12.07 mg/dL
POTASSIUM [1]: 6.65 MEQ/L
SODIUM [1]: 143.7 MEQ/L
TOTAL BILIRUBIN [1]: 0.2 mg/dL
TOTAL PROTEIN [1]: 5.97 G/DL
URIC ACID [1]: 1.73 mg/dL
ABSOLUTE BASOPHIL [2]: 0 CELLS/uL
ABSOLUTE EOSINOPHIL [2]: 63 CELLS/uL
ABSOLUTE LYMPHOCYTE [2]: 13104.67 CELLS/uL
ABSOLUTE MONOCYTE [2]: 130.33 CELLS/uL
ABSOLUTE SEGMENTED NEUTROPHIL [2]: 1568.67 CELLS/uL
BASOPHIL [2]: 0%
EOSINOPHIL [2]: 0.33%
ERYTHROCYTE COUNT [2]: 5.51 x10E6/uL
HEMATOCRIT [2]: 33.67%
HEMOGLOBIN [2]: 13.33 G/DL
LEUKOCYTE COUNT [2]: 14.87 x10E3/uL
LYMPHOCYTE [2]: 88%
MEAN CORPUSCULAR HEMOGLOBIN [2]: 24.2 pg
MEAN CORPUSCULAR HEMOGLOBIN CONCENTRATION [2]: 39.57 G/DL
MEAN CORPUSCULAR VOLUME [2]: 61.07 fL
MONOCYTE [2]: 1%
NEUTROPHIL [2]: 10.67%
NUCLEATED RED BLOOD CELLS [2]: 0 /100WBC
PLATELET COUNT [2]: 1135.67 x10E3/uL
ALANINE AMINOTRANSFERASE [2]: 59.67 u/L
ALBUMIN [2]: 4.07 G/DL
ALKALINE PHOSPHATASE [2]: 404 u/L
ASPARTATE AMINOTRANSFERASE [2]: 88.67 u/L
BLOOD UREA NITROGEN [2]: 15.67 mg/dL
CARBON DIOXIDE [2]: 28 mmol/L
CHLORIDE [2]: 99.67 MEQ/L
CHOLESTEROL [2]: 47.67 mg/dL
CREATINE PHOSPHOKINASE [2]: 326.33 u/L
CREATININE [2]: 0.2 mg/dL
GLUCOSE [2]: 144 mg/dL
LACTATE DEHYDROGENASE [2]: 320.33 u/L
LIPASE [2]: 9 u/L
PHOSPHORUS [2]: 10.93 mg/dL
POTASSIUM [2]: 6.55 MEQ/L
SODIUM [2]: 142.4 MEQ/L
TOTAL BILIRUBIN [2]: 0.23 mg/dL
TOTAL PROTEIN [2]: 5.87 G/DL
URIC ACID [2]: 1.63 mg/dL
ABSOLUTE BASOPHIL [3]: 0 CELLS/uL
ABSOLUTE EOSINOPHIL [3]: 36.33 CELLS/uL
ABSOLUTE LYMPHOCYTE [3]: 8482.33 CELLS/uL
ABSOLUTE MONOCYTE [3]: 63 CELLS/uL
ABSOLUTE SEGMENTED NEUTROPHIL [3]: 1351.67 CELLS/uL
BASOPHIL [3]: 0%
EOSINOPHIL [3]: 0.33%
ERYTHROCYTE COUNT [3]: 6.02 x10E6/uL
HEMATOCRIT [3]: 35.6%
HEMOGLOBIN [3]: 13.97 G/DL
LEUKOCYTE COUNT [3]: 9.93 x10E3/uL
LYMPHOCYTE [3]: 85.33%
MEAN CORPUSCULAR HEMOGLOBIN [3]: 23.23 pg
MEAN CORPUSCULAR HEMOGLOBIN CONCENTRATION [3]: 39.23 G/DL
MEAN CORPUSCULAR VOLUME [3]: 59.17 fL
MONOCYTE [3]: 0.67%
NEUTROPHIL [3]: 13.67%
NUCLEATED RED BLOOD CELLS [3]: 0 /100WBC
PLATELET COUNT [3]: 1115.33 x10E3/uL
ALANINE AMINOTRANSFERASE [3]: 54.67 u/L
ALBUMIN [3]: 4.13 G/DL
ALKALINE PHOSPHATASE [3]: 331 u/L
ASPARTATE AMINOTRANSFERASE [3]: 125.67 u/L
BLOOD UREA NITROGEN [3]: 18 mg/dL
CARBON DIOXIDE [3]: 30 mmol/L
CHLORIDE [3]: 99.67 MEQ/L
CHOLESTEROL [3]: 51.67 mg/dL
CREATINE PHOSPHOKINASE [3]: 222.33 u/L
CREATININE [3]: 0.15 mg/dL
GLUCOSE [3]: 144.67 mg/dL
LACTATE DEHYDROGENASE [3]: 126.33 u/L
LIPASE [3]: 10 u/L
PHOSPHORUS [3]: 12 mg/dL
POTASSIUM [3]: 6.6 MEQ/L
SODIUM [3]: 143.8 MEQ/L
TOTAL BILIRUBIN [3]: 0.17 mg/dL
TOTAL PROTEIN [3]: 6.13 G/DL
URIC ACID [3]: 1.7 mg/dL
ABSOLUTE BASOPHIL [4]: 0 CELLS/uL
ABSOLUTE EOSINOPHIL [4]: 32.33 CELLS/uL
ABSOLUTE LYMPHOCYTE [4]: 11456 CELLS/uL
ABSOLUTE MONOCYTE [4]: 0 CELLS/uL
ABSOLUTE SEGMENTED NEUTROPHIL [4]: 1345 CELLS/uL
BASOPHIL [4]: 0%
EOSINOPHIL [4]: 0.33%
ERYTHROCYTE COUNT [4]: 5.94 x10E6/uL
HEMATOCRIT [4]: 35.4%
HEMOGLOBIN [4]: 14 G/DL
LEUKOCYTE COUNT [4]: 12.83 x10E3/uL
LYMPHOCYTE [4]: 88.67%
MEAN CORPUSCULAR HEMOGLOBIN [4]: 23.57 pg
MEAN CORPUSCULAR HEMOGLOBIN CONCENTRATION [4]: 39.57 G/DL
MEAN CORPUSCULAR VOLUME [4]: 59.5 fL
MONOCYTE [4]: 0%
NEUTROPHIL [4]: 11%
NUCLEATED RED BLOOD CELLS [4]: 0 /100WBC
PLATELET COUNT [4]: 1399.33 x10E3/uL
ALANINE AMINOTRANSFERASE [4]: 62.67 u/L
ALBUMIN [4]: 4.17 G/DL
ALKALINE PHOSPHATASE [4]: 326.67 u/L
ASPARTATE AMINOTRANSFERASE [4]: 68 u/L
BLOOD UREA NITROGEN [4]: 18.67 mg/dL
CARBON DIOXIDE [4]: 28.33 mmol/L
CHLORIDE [4]: 99.33 MEQ/L
CHOLESTEROL [4]: 45.33 mg/dL
CREATINE PHOSPHOKINASE [4]: 147.33 u/L
CREATININE [4]: 0.18 mg/dL
GLUCOSE [4]: 140.67 mg/dL
LACTATE DEHYDROGENASE [4]: 121 u/L
LIPASE [4]: 10 u/L
PHOSPHORUS [4]: 12.37 mg/dL
POTASSIUM [4]: 6.84 MEQ/L
SODIUM [4]: 145.03 MEQ/L
TOTAL BILIRUBIN [4]: 0.2 mg/dL
TOTAL PROTEIN [4]: 6.73 G/DL
URIC ACID [4]: 1.6 mg/dL
